Measured values taken from US10167299B2, “1-(3-aminopropyl) substituted cyclic amine compounds, preparation method therefor, and pharmaceutical compositions and uses thereof” (SHANGHAI INSTITUTE OF MATERIA MEDICA, CHINESE ACADEMY OF …, priority 2013, dated 2019).

How the values were obtained:
[1] = system: Salmonella typhimurium strain TA98; assay: Bacterial reverse mutation assay TA98 (-S9); assay type: cell-based; conditions: for mutagenic effect on Salmonella typhimurium strain TA98: -S9, 1-5000 μg/dish
Protocol: (§1) The mutagenic effects of compounds 18 and 22 of the present invention on Salmonella typhimurium strains TA98 and TA100 in non-metabolic activation (-S9) condition were determined. Two strains, TA98 and TA100 were chosen in bacterial reverse mutation assay for compounds 18 and 22. 9 doses containing […], negative and positive controls were set in experiments. 3 dishes were used for each dose. The experiment was carried out under -S9 condition.

[2] = system: Salmonella typhimurium strain TA100; assay: Bacterial reverse mutation assay TA100 (-S9); assay type: cell-based; conditions: for mutagenic effect on Salmonella typhimurium strain TA100: -S9, 1-5000 μg/dish
Protocol: as §1

[3] = Four days subacute toxicity test of rats; assay type: in vivo; conditions: SD rats; for Clinical observations, clinical pathology detection (hematology and serum biochemistry) and macroscopic morphological observation / weight gain compared with vehicle control group: gavage 4 days, 100 and 1000 mg/kg; for weight gain compared with vehicle control group: some male and female animals; for NOAEL at 4 days: both sexes, rat, in vivo, po, gavage for 4 days, read-out: No Observed Adverse Effect Level (NOAEL)
Description: After compounds 18 and 22 of the present invention were administrated to SD rats through gavage for 4 consecutive days, the toxic reaction was preliminarily assessed to confirm the possible target organ of toxic reaction.
One vehicle control group was set. Each group contained four rats including two male rats and two female rats. During the experiment stage, the animals were daily clinically observated. The body weight was regularly measured. On the 5th day, all animals were subject to pathological examination and gross anatomy.

[4] = Pharmacokinetic experiment of rats; conditions: for AUC(0-t) / AUC(0-inf) / Cmax / MRT / Tmax / bioavailability: male, rat, plasma
Protocol: The administration volume was 10 mL/kg and drug was formulated with DMSO/Tween 80/physiological saline (5:5:90, v/v/v). […] 2 h after dosing, the rats ate together.
At above time points, 0.3 ml of venous blood was taken from retrobulbar venous plexus of the rat and loaded into EDTA-2K anticoagulative tube. After centrifuged at 11000 rpm for 5 mm, the plasma was separated and frozen at −20° C. in a refrigerator.
The concentration of each compound in rat plasma was determined by LC/MS/MS.
(§2) The pharmacokinetic parameters after administration were calculated by using non-compartment model of WinNonlin 5.3 software (Pharsight Corporation, USA).

PBMC cells = assay: Toxicity test of compounds on PBMC cells (MTT); assay type: cell-based
Outline: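 Six-point 5-fold dilutions of compound in 10% FBS RPMI-1640 or DMEM, in triplicate, with HOS-CD4-CCR5 cells (4×10^5/ml) for 3 days or PHA-stimulated PBMC (5×10^6/ml) for 7 days, fed on day 3, at 37 °C, 5% CO2. Viability by MTT, OD 570 nm, reference 630 nm.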

[5] = Pharmacokinetic experiment on Beagles
Protocol: The administration volume was 2 mL/kg and 1 mL/kg, respectively. The compound was suspended in 20% PEG400 (4:96) for gavage and formulated in DMSO/Tween 80/physiological saline (5:1:94, v/v/v) for intravenous injection. […] 2 h after dosing, all of Beagles ate together.
At above time points, 0.6 ml venous blood was taken from limb venous and loaded into EDTA-2K anticoagulative tube. After centrifuged at 11000 rpm for 5 mm, the plasma was separated and frozen at −20° C. in a refrigerator.
as §2

[6] = male, beagle, dog, plasma, iv, 3 mg/kg
[7] = male, beagle, dog, plasma, po, 15 mg/kg

| SMILES | mutagenic effect on Salmonella typhimurium strain TA98 [1] | number of revertant colonies (Mean ± SD) ([1]; TA98, -S9, 1 μg/dish) | number of revertant colonies (Mean ± SD) ([1]; TA98, -S9, 3 μg/dish) | number of revertant colonies (Mean ± SD) ([1]; TA98, -S9, 10 μg/dish) | number of revertant colonies (Mean ± SD) ([1]; TA98, -S9, 30 μg/dish) | number of revertant colonies (Mean ± SD) ([1]; TA98, -S9, 100 μg/dish) | number of revertant colonies (Mean ± SD) ([1]; TA98, -S9, 300 μg/dish) | number of revertant colonies (Mean ± SD) ([1]; TA98, -S9, 1000 μg/dish) | number of revertant colonies (Mean ± SD) ([1]; TA98, -S9, 3000 μg/dish) | number of revertant colonies (Mean ± SD) ([1]; TA98, -S9, 5000 μg/dish) | mutagenic effect on Salmonella typhimurium strain TA100 [2] | number of revertant colonies (Mean ± SD) ([2]; TA100, -S9, 1 μg/dish) | number of revertant colonies (Mean ± SD) ([2]; TA100, -S9, 3 μg/dish) | number of revertant colonies (Mean ± SD) ([2]; TA100, -S9, 10 μg/dish) | number of revertant colonies (Mean ± SD) ([2]; TA100, -S9, 30 μg/dish) | number of revertant colonies (Mean ± SD) ([2]; TA100, -S9, 100 μg/dish) | number of revertant colonies (Mean ± SD) ([2]; TA100, -S9, 300 μg/dish) | number of revertant colonies (Mean ± SD) ([2]; TA100, -S9, 1000 μg/dish) | number of revertant colonies (Mean ± SD) ([2]; TA100, -S9, 3000 μg/dish) | number of revertant colonies (Mean ± SD) ([2]; TA100, -S9, 5000 μg/dish) | also measured |
| --- | --- | --- | --- | --- | --- | --- | --- | --- | --- | --- | --- | --- | --- | --- | --- | --- | --- | --- | --- | --- | --- |
| Cc1nnc(C(C)C)n1C1CC2CCC(C1)N2CC[C@H](NC(=O)C1CCCC1)c1cccs1 (stereo partly drawn) [Compound 18, N-[(1S)-3-[exo-3-(3-isopropyl-5-methyl-4H-1,2,4-triazol-4-yl)-8-azabicyclo[3.2.1]octane-8-yl]-1-(thiophen-2-yl)propyl]cyclopentane-1-carboxamide] | no mutagenic effect | 24 ± 5.0 | 23 ± 2.6 | 20 ± 2.3 | 19 ± 1.5 | 15 ± 4.6 | 20 ± 4.2 | 18 ± 1.5 | 21 ± 1.5 | 20 ± 4.9 | no mutagenic effect | 116 ± 9.0 | 96 ± 10.0 | 95 ± 13.1 | 100 ± 8.3 | 88 ± 0.6 | 91 ± 18.2 | 106 ± 17.6 | 108 ± 6.9 | 95 ± 7.2 | Clinical observations, clinical pathology detection (hematology and serum biochemistry) and macroscopic morphological observation [3]: no significant drug-related changes; weight gain compared with vehicle control group [3]: increased slowly or exhibited negative growth; NOAEL at 4 days [3]: 1000 mg/kg |
| Cc1nnc(C(C)C)n1C1CCN(CC[C@H](NC(=O)C2CCCC2)c2cccs2)CC1 [Compound 17, N-[(1S)-3-[4-(3-isopropyl-5-methyl-4H-1,2,4-triazol-4-yl)-piperidin-1-yl]-1-(thiophen-2-yl)propyl]cyclopentane-1-carboxamide] | – | – | – | – | – | – | – | – | – | – | – | – | – | – | – | – | – | – | – | – | AUC(0-t) ([4]; intravenous, 10 mg/kg): 374 ng·h/mL; AUC(0-inf) ([4]; iv, 10 mg/kg): 394 ng·h/mL; AUC(0-t) ([4]; iv, 10 mg/kg): 374 ng·h/mL; Cmax ([4]; iv, 10 mg/kg): 246 ng/mL; MRT ([4]; iv, 10 mg/kg): 1.42 h; Tmax ([4]; iv, 10 mg/kg): 0.25 h; bioavailability ([4]; oral): 46.6%; AUC(0-inf) ([4]; po, 20 mg/kg): 364 ng·h/mL; AUC(0-t) ([4]; po, 20 mg/kg): 348 ng·h/mL; Cmax ([4]; po, 20 mg/kg): 122 ng/mL; MRT ([4]; po, 20 mg/kg): 2.31 h; Tmax ([4]; po, 20 mg/kg): 0.5 h; bioavailability ([4]; po, 20 mg/kg): 46.6%; AUC0-t ng/mL * h ([4]; rats, gavage, 20 mg/kg): 347.9 ng·h/mL; CLz ([4]; rats, vein, 10 mg/kg): 423 mL/min/kg |
| Cc1ccc([C@H](CCN2C3CCC2CC(n2c(C)nnc2C(C)C)C3)NC(=O)C2CCC(F)(F)CC2)s1 (stereo partly drawn) [Compound 29, 4,4-difluoro-N-[(1S)-3-[exo-3-(3-isopropyl-5-methyl-4H-1,2,4-triazol-4-yl)-8-azabicyclo[3.2.1]octane-8-yl]-1-(5-methylthiophen-2-yl)propyl]cyclohexane-1-carboxamide] | – | – | – | – | – | – | – | – | – | – | – | – | – | – | – | – | – | – | – | – | CC50 (PBMC cells; PBMC cells (Table 5)): >200 µg/mL; CC50 (PBMC cells; PBMC cells (Table 6)): >200 µg/mL |
| Cc1nnc(C(C)C)n1C1CC2CCC(C1)N2CC[C@H](NC(=O)C1CCC(F)(F)CC1)c1ccsc1 (stereo partly drawn) [Compound 22, 4,4-difluoro-N-[(1S)-3-[exo-3-(3-isopropyl-5-methyl-4H-1,2,4-triazol-4-yl)-8-azabicyclo[3.2.1]octane-8-yl]-1-(thiophen-3-yl)propyl]cyclohexane-1-carboxamide] | no mutagenic effect | 23 ± 3.2 | 24 ± 3.6 | 23 ± 2.6 | 21 ± 5.2 | 23 ± 6.7 | 23 ± 6.5 | 19 ± 6.4 | 22 ± 5.0 | 25 ± 7.2 | no mutagenic effect | 107 ± 16.7 | 109 ± 9.3 | 112 ± 10.7 | 90 ± 11.0 | 97 ± 4.6 | 102 ± 2.9 | 90 ± 6.5 | 86 ± 13.1 | 109 ± 17.5 | Clinical observations, clinical pathology detection (hematology and serum biochemistry) and macroscopic morphological observation [3]: no significant drug-related changes; weight gain compared with vehicle control group [3]: increased slowly or exhibited negative growth; NOAEL at 4 days [3]: 1000 mg/kg; AUC(0-t) [5]: 10900 ng·h/mL; AUC0-t ng/mL * h ([5]; Beagles, gavage, 15 mg/kg): 5426 ng·h/mL; Tmax h ([5]; Beagles, gavage, 15 mg/kg): 0.833 h; t1/2 h ([5]; Beagles, gavage, 15 mg/kg): 3.89 h; CLz ([5]; Beagles, vein, 3 mg/kg): 4.63 mL/min/kg; AUC(0-t) ([5]; male, beagle, dog, plasma, intravenous, 3 mg/kg): 10900 ng·h/mL; AUC(0-inf) [5, 6]: 10900 ng·h/mL; MRT [5, 6]: 1.65 h; half-life [5, 6]: 1.73 h; bioavailability ([5]; male, beagle, dog, plasma, oral): 9.98%; AUC(0-inf) [5, 7]: 5520 ng·h/mL; AUC(0-t) [5, 7]: 5430 ng·h/mL; Cmax [5, 7]: 4610 ng/mL; MRT [5, 7]: 2.11 h; bioavailability [5, 7]: 9.98%; half-life [5, 7]: 3.89 h; Tmax ([5]; male, beagle, dog, plasma, po, 15 mg/kg, Tmax h, Beagles, gavage): 0.833 h |
